For data set [1] the following is noted: aqueous; cited from earlier work.
For data set [2] the following is noted: cited from earlier work.
Data set [3] can be described thus: XRPD of stressed pioglitazone HCl binary/acidified compacts (free base formation). It counts as physicochemical. As to conditions: for Inhibition of disproportionation via acidification (Table 6 and FIGS. 2 and 3): organic acid in a 1:1 weight ratio with the carboxylate excipient, NIR and XRPD; for Inhibition of disproportionation by organic acid (XRPD, FIG. 2): pioglitazone HCl compacts containing MgSt with organic acids, 40° C./75% RH open dish. As for the experimental part: (§1) An understanding of pioglitazone HCl salt disproportionation was obtained by studying each excipient individually. All of the API and excipient powders were gravimetrically dispensed into 1-dram glass vials using the Symyx Powdernium powder dispensing robot. Binary mixtures containing 250 mg of pioglitazone HCl salt and approximately 30 mg of the excipients were dispensed to create a 9:1 weight ratio mixture. Pharmaceutically relevant formulation matrix samples, or pseudo formulations, were also prepared. The compact target weight was 280 mg with a final composition of 45% of pioglitazone HCl salt, 25% avicel, 25% mannitol and 5% of the remaining excipients.
(§2) Upon completion of the powder dispensing, the vials were removed from the robot and mixed using a Resodyn Acoustic Mixer (LabRAM). The powders were mixed for 30 seconds at 30% intensity to produce homogeneous mixtures. The powders were then poured from the DRAM vial into a ½ inch die. A single compact from each DRAM vial was manually compressed using a compression force of 2000-3000 lbs and a dwell time of 5 seconds. Compacts were stressed at 40° C./35% RH and 40° C./75% RH. The sample preparation and reference for each compact can be seen in Table 2.
XRPD spectroscopy was also used to quantify the level of disproportionation in selected stressed samples of pioglitazone HCl. XRPD Spectroscopy is more sensitive to free base than NIR, making it suitable for samples with little or no disproportionation. The XRPD spectra were collected on the Panalytical X'pert Pro diffractometer with Cu Ka1 radition of 1.5406 Å in the transmission mode. The samples were scanned between a two theta range of 4 and 20° at a step size of 0.0167° for one hour at ambient conditions. The tube power used was 45 kV and 40 mA. In the XRPD pattern, the pioglitazone crystalline free base form has four specific peaks at 7.8weak, 9.1strong, 10.3strong and 15.1moderate 2-theta. The pioglitazone HCl form has a doublet peak centered at 8.6 2-theta.

The nature of data set [4]: FT-NIR monitoring of loss of HCl salt in stressed pioglitazone HCl binary/acidified compacts. It is filed as physicochemical. As to conditions: MgSt and organic acid compacts, 40° C./75% RH open dish. As for the experimental part: as §1, §2
FT-NIR reflectance spectroscopy was used to monitor the loss of HCl salt throughout the binary and pseudo formulation studies. […]

In the case of `O=C(O)/C=C/C(=O)O` [Fumaric Acid], the “Aq. Sol.” value in data set [1] is 0.0063 g/mL. Moreover, the “pKa Values (first value)” value in data set [2] was 3.0. Further, in data set [3], the “Inhibition of disproportionation via acidification (Table 6 and FIGS. 2 and 3)” value (from here on “Inhibition … (Table 6 and FIGS. 2 and 3)”) is “not effective in inhibiting disproportionation”; the “Inhibition of disproportionation by organic acid (XRPD, FIG. 2)” value (shortened to “Inhibition … (XRPD, FIG. 2)”) is “do not effectively inhibit disproportionation”.
As for `O=C(O)C(O)C(O)C(=O)O` (stereo not shown) [Tartaric Acid], the “Aq. Sol.” value in data set [1] is reported as 1.3 g/mL. In data set [2], the “pKa Values (first value)” value was 3.0 and the “pKa Values (second value)” value is recorded as 4.2. In data set [3], the “Inhibition … (Table 6 and FIGS. 2 and 3)” value is “completely inhibited”; the “Inhibition … (XRPD, FIG. 2)” value is given as “successfully inhibit disproportionation”. For the same compound, in data set [4], the “Inhibition of disproportionation by organic acid (NIR, Table 6)” value is “could inhibit disproportionation”.
Turning to `O=C(O)/C=C\C(=O)O` [Maleic Acid], the “Aq. Sol.” value in data set [1] is listed as 0.78 g/mL. In addition, in data set [2], the “pKa Values (second value)” value is on record as 6.3. For the same compound, in data set [3], the “Inhibition … (Table 6 and FIGS. 2 and 3)” value was “completely inhibited”; the “Inhibition … (XRPD, FIG. 2)” value is reported as “successfully inhibit disproportionation”. The “Inhibition of disproportionation by organic acid (NIR, Table 6)” value in data set [4] was “could inhibit disproportionation”.
In the case of Citric Acid, in data set [2], the “pKa Values (first value)” value is given as 3.2 and the “pKa Values (second value)” value is given as 4.8. For the same compound, in data set [2] (third pKa printed in cell), the “pKa Values (third value)” value is on record as 6.4. In addition, in data set [3], the “Inhibition … (Table 6 and FIGS. 2 and 3)” value is recorded as “not effective in inhibiting disproportionation”; the “Inhibition … (XRPD, FIG. 2)” value is “do not effectively inhibit disproportionation”.
Take `O=C(O)C(=O)O` [Oxalic Acid]: the “Aq. Sol.” value in data set [1] is reported as 0.14 g/mL. In addition, in data set [2], the “pKa Values (first value)” value is reported as 1.25 and the “pKa Values (second value)” value is on record as 4.14. Besides, in data set [3], the “Inhibition … (Table 6 and FIGS. 2 and 3)” value is reported as “not effective in inhibiting disproportionation”; the “Inhibition … (XRPD, FIG. 2)” value is “do not effectively inhibit disproportionation”.
